According to patent US12357645B2, “Drug combination for treatment of gastric cancer” (priority 2023, dated 2025):

Assays:
[1] = test system: rats; assay: Definitive toxicity studies in rats (intravenous); format: in vivo; details: definitive toxicity study
Method: (§1) As clinical development of minnelide prodrug was initiated using an intravenous drug product, IND-enabling toxicology studies were conducted in both rats and dogs using the intravenous route of administration. The results of these studies supported first-in-human clinical trials involving intravenous administration of minnelide prodrug to patients with advanced solid tumors. To support the clinical development of a new solid oral dosage form of minnelide prodrug (capsules), exploratory and definitive toxicity studies were conducted with minnelide prodrug in solution via oral gavage in dogs. Taken together, the results of the intravenous and oral toxicity studies conducted with minnelide prodrug indicate that the target organ profile of minnelide prodrug is consistent in both species (rats and dogs) when administered by either route of administration (intravenous or oral).

[2] = test system: dogs; assay: Definitive toxicity studies in dogs (intravenous, oral gavage); format: in vivo
Method: as §1

[3] = test system: MKN45, MKN28I-N-87; assay: Subcutaneous gastric cancer models, daily intraperitoneal minnelide prodrug; format: in vivo; details: 0.2 mg/kg and 0.4 mg/kg
[4] = test system: advanced gastric cancer (AGC); assay: Phase 1 study of minnelide prodrug alone or with paclitaxel in advanced gastric cancer (NCT 05566834): antitumor activity (RECIST v1.1; BOR, ORR, DCR, PFS, OS); format: in vivo, human
Method: Target Lesions. All measurable lesions up to a maximum of two lesions per organ and five lesions in total, representative of all involved organs, were identified as target lesions and recorded and measured at baseline. Target lesions were selected on the basis of their size (lesions with the longest diameter) and were representative of all involved organs, as well as their suitability for reproducible repeated measurements. All measurements were recorded using calipers if clinically assessed.
A sum of the diameters (longest for non-nodal lesions, short axis for nodal lesions) for all target lesions were calculated and reported as the baseline sum diameters, which were used as a reference to further characterize any objective tumor regression in the measurable dimension of the disease. If lymph nodes were included in the sum, only the short axis contributed.
Study design. This was an open-label, nonrandomized, phase 1 study conducted at Samsung Medical Center (SMC) in Korea. The study consisted of three regimens: Monotherapy with minnelide prodrug (Regimen A) and Combination therapy (minnelide prodrug plus paclitaxel), which was further divided into Regimen B and C.
Patients. Adult (≥20 years of age) Korean patients with histologically confirmed advanced-unresectable or metastatic gastric or gastro-esophageal junction adenocarcinoma, who had failed initial standard therapy or for whom no standard treatment was available, were eligible to participate in the study, regardless of HER2 status. Study treatment was discontinued if the patient experienced radiological progressive disease (PD) per Response Evaluation Criteria in Solid Tumors version 1.1 (RECIST v1.1) as assessed by the investigator, clinical progression as assessed by the investigator, or developed unacceptable toxicity.
Treatments. In Regimen A, 3-5 patients were treated at escalating doses of minnelide prodrug alone to determine the maximum tolerated dose (MTD). Minnelide prodrug was administered per oral (PO) once daily for 21 days followed by a 7-day rest period, starting at 1 mg, and escalating to 1.25 mg, and 1.5 mg. One cycle was equal to 28 days and minnelide prodrug was given with the patient in a fasting state. In Regimen B, the same dosing scheme was used for minnelide prodrug 0.25 mg PO in combination with paclitaxel intravenously on days 1, 8 and 15 (Q4W), starting at 60 mg/m^2, and escalating to 80 mg/m^2. In Regimen C, patients were treated with paclitaxel 80 mg/m^2 given intravenously on days 1, 8 and 15 (Q4W) in combination with minnelide prodrug PO once daily on days 1 to 5, 8 to 12 and 15 to 19, starting at 0.5 mg, escalating to 0.75 mg, 1.0 mg, and 1.25 mg. Dose-limiting toxicities (DLTs) were assessed during cycle 1. Treatment continued until disease progression, death, unacceptable toxicity, or patient or investigator decision to discontinue.
Outcomes. In this phase 1 study, the primary objective was to determine the maximum tolerated dose (MTD) and the dose limiting toxicities (DLT) of minnelide prodrug when given alone or in combination with paclitaxel and to establish recommended phase 2 dose (RP2D) of single-agent minnelide prodrug and in combination with paclitaxel every 4 weeks. Secondary objectives were to assess any evidence of antitumor activity of minnelide prodrug alone and in combination with paclitaxel by objective radiographic assessment. Antitumor activity was assessed by objective response rate (ORR). Disease control rate (DCR), duration of response (DOR), progression-free survival (PFS) and overall survival (OS) analysis were performed.
Assessment. Adverse events were graded using National Cancer Institute Common Terminology Criteria for Adverse Events (NCI CTCAE), version 4.03. Tumor assessments were performed after cycles 2, 4, 6, and 8, and every 4 cycles thereafter, or as indicated. Response was determined by investigators using RECIST criteria, version 1.1. […]

[5] = cited from earlier work
[6] = test system: pancreatic tumor cell lines; assay: Viability of pancreatic tumor cell lines in vitro (activated with alkaline phosphatase); format: cell-based; details: activated by concurrent incubation with alkaline phosphatase
[7] = test system: patients with Advanced Gastrointestinal Tumors; assay: Phase 1 study of intravenous minnelide prodrug: safety; format: in vivo, human
Source text: Intravenous Minnelide Prodrug. Phase 1, Multi-Center, Open-Label, Dose-Escalation, Safety, Pharmacokinetic, and Pharmacodynamic Study of minnelide prodrug given intravenously daily for 21 days followed by 7 days off schedule in patients with Advanced Gastrointestinal Tumors. A second dosing schedule of minnelide prodrug given intravenously QD for 5 days with 2 days off for three weeks followed by a 7-day rest period was also explored during this study.

[8] = test system: patients with Advanced Solid Tumors; format: in vivo, human
Source text: Oral Minnelide Prodrug. A Phase 1, Multi-Center, Open-Label, Dose-Escalation, Safety, Pharmacokinetic, and Pharmacodynamic Study of Minnelide™ Capsules given alone or in combination with protein-bound paclitaxel in patients with Advanced Solid Tumors. A total of 44 patients were enrolled and dosed in the Phase 1 study, 32 in the monotherapy regimen, and 12 in the combination regimen. The primary reason for discontinuation of treatment has been disease progression. There were 9 deaths in the study, 7 of which were assessed as not related to minnelide prodrug and were after discontinuation of the study drug. One patient on the 1.25 mg monotherapy regimen passed away from G5 related sepsis.

[9] = Regimen A (PO daily x21 d/28 d), n = 11
[10] = Regimen A, nine patients who completed at least 1 cycle with measurable lesions
[11] = Regimen A, Kaplan-Meier estimate
[12] = 44 patients, alone or with protein-bound paclitaxel

## CC(C)[C@]12O[C@H]1[C@@H]1O[C@]13[C@]1(O[C@H]1C[C@H]1C4=C(CC[C@@]13C)C(=O)OC4)[C@@H]2OCOP(=O)([O-])[O-].[Na+].[Na+] [minnelide prodrug, disodium; [(1S,2S,4S,5S,7S,8R,9R,11S, 13S)-1-methyl-17-oxo-7-propan-2-yl-3,6,10,16-tetraoxaheptacyclo [11.7.0.0^2,4.0^2,9.0^5,7.0^9,11.0^14,18]icos-14 (18)-en-8-yl]oxymethyl phosphate]
[1]
  histopathology of reproductive tract tissues, males and females: adverse, largely irreversible histopathological effects
[2]; definitive toxicity studies, dogs
  histopathology of reproductive tract tissues, males and females: adverse, largely irreversible histopathological effects
[2]; oral gavage for up to 28 consecutive days
  histopathology of the gastrointestinal tract: No adverse histopathological effects
[3]
  tumor weights and volumes: markedly decreased tumor weights and volumes
[4]; Regimen A
  Duration of OS, Range: 1.6-11.1 months
  Duration of PFS, Range: 0.7-5.4 months
  PFS events, n (%): 9 n (%)
[4]; [9]
  BOR NE, number of patients: 2
  BOR PD, number of patients: 5
  BOR SD, number of patients: Four
  DCR, n (%): 4 (36.4) n (%)
  ORR, n (%): 0 n (%)
[4]; Regimen A (PO daily x21 d/28 d), n = 11, listed as Minnelide prodrug
  BOR SD, number of patients: 4
[4]; [10]
  BOR PD, share of patients: 55.6%
  BOR SD, share of patients: 44.4%
  DCR: 44.4%
[4]; [11]
  Duration of OS, Median: 5.3 months
  Duration of PFS, Median: 1.6 months
[4]; single agent, patient had failed four lines of therapy including immunotherapy
  duration of stable disease (one patient): 5.4 months
[5]
  aqueous solubility: greater aqueous solubility
[6]
  potency in decreasing viability: as potent as triptolide
[7]
  Anemia and thrombocytopenia Grade 3 and 4 (drug related), share of patients: 22%
  Serious Adverse Events related to the study drug: six
  Serious Adverse Events, number: 28
  TEAE cases considered DLTs: two
  other possibly related side effects of any grade (nausea, vomiting, diarrhea, constipation, anorexia, stomatitis, cerebellar toxicity, embolism, dyspnea), share of patients: ≤ 3%
  patients with Serious Adverse Events: 17
  patients with at least 1 AE considered related to the study drug: 32
  patients with neutropenic fever and neutropenic infection (drug related): three
[7]; 42 patients dosed, after study drug ended, within 30-day follow-up, not related to study drug
  deaths in the study: 6
[7]; all Grade 3
  patients who discontinued study drug due to TEAEs: 3
[7]; all dose levels
  resolution of grade 3 and 4 neutropenia after not receiving treatment: within a couple of days
[8]; [12]
  Serious Adverse Events related to the study drug: 4
  Serious Adverse Events, number: 28
  patients who discontinued study drug due to TEAE: Four
  patients with Serious Adverse Events: 17
[8]; 44 patients: 32 monotherapy, 12 combination
  deaths in the study: 9
[8]; after discontinuation of the study drug
  deaths assessed as not related to minnelide prodrug: 7
[8]; in vivo
  patients with at least 1 AE considered related to the study drug: Twenty-seven
[8]; two events of sepsis, one influenza A pneumonia
  SAE cases considered dose limiting toxicities (DLTs): Three
